Source: patent US20070270393A1, “Methods and compositions for modulation of sleep cycle” (priority 2006, published 2007)
Several values for one entry are separate records, joined by “and”; a condition that tells them apart may be missing. Equal entries are not always repeated.

Key:
[1] = target: T1, glucocorticoid (GR) receptors (Homo sapiens, UniProt P04150); conditions: literature; cited from earlier work
T1 sequence (P04150 1-777): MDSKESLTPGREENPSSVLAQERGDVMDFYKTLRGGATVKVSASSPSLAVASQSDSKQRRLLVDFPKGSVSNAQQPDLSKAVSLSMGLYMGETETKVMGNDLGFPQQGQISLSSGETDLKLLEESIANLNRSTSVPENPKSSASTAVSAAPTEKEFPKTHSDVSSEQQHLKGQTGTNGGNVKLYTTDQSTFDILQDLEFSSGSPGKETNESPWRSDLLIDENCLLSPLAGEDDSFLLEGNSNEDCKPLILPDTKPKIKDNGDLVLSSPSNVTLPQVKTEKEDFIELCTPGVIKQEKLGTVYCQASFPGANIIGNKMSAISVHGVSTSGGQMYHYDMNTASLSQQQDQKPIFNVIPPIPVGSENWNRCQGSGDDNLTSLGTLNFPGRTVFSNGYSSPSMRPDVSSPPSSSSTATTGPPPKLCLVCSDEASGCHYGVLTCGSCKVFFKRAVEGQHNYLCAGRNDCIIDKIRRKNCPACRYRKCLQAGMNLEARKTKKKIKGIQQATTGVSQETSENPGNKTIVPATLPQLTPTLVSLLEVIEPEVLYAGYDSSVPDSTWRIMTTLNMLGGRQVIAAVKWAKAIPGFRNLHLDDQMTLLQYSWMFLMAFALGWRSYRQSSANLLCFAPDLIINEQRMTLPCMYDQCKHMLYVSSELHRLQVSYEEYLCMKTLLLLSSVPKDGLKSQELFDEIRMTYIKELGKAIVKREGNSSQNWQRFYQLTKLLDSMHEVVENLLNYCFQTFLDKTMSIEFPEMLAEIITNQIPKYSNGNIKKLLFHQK

[2] = test system: nocturnal HPA axis activity in healthy controls; assay: Two day repeated measures study of fludrocortisone's acute effects on nocturnal HPA axis activity; format: in vivo, human
Procedure: Nine healthy subjects were recruited from the community via flyers and internet postings. Subjects responding to ads were phone screened to determine if subjects met initial eligibility criteria. Those subjects meeting criteria underwent physical examination, screening labs (complete blood count, comprehensive metabolic panel, urine analysis, urine toxicology screen, TSH, FT4, serum pregnancy test) and EKG. A SCID was performed to rule out Axis I and Axis II DSM-TR pathology. At the time of this analysis and manuscript preparation, 9 subjects have been enrolled. Inclusion criteria were: (1) participants are age 18 to 85 years old with a HAM-D score less than or equal to 5. Exclusion criteria were: (1) personal history of Axis I or Axis II disorders; (2) active medical problems; (3) abuse of drugs or alcohol in the 6 months prior to study; (4) use of additional prescription medications, street drugs or alcohol during the week before the study; (5) currently pregnant or lactating.
This study is a two day repeated measures study of fludrocortisone's acute effects on nocturnal HPA axis activity in healthy controls. Blood samples were taken every 30 minutes, beginning at 1600 to 2400 on Days 1. At 1400 on Day 2, all subjects were given 0.5 mg of fludrocortisone. Blood was then resampled from 1600 to 2400 on Day 2 to assess nocturnal changes in HPA axis activity. Blood sampling was timed in the first half of the night to coincide with the time period of greatest activity of MR.
Group averages, standard deviation and effect sizes are reported. The primary end-points were chosen to be mean cortisol and ACTH from 1600 to 2400 when greatest mineralocorticoid receptor activity is expected. To determine the differential effects of fludrocortisone, data from all subjects are pooled and the average values from 1600 to 2400 are computed. Next, mean values across this time interval are computed before (Time 1) and after (Time 2) fludrocortisone and the effect size for the difference between pooled mean values is computed.

[3] = test system: MR and GR; conditions: Reul and de Kloet 1985; cited from earlier work
[4] = 0.5 mg fludrocortisone, treatment vs baseline

CC#C[C@]1(O)CC[C@H]2[C@@H]3CCC4=CC(=O)CCC4=C3[C@@H](c3ccc(OCCN(C)C)cc3)C[C@@]21C [RU009, 11-beta-(4-dimethyl-aminoethoxyphenyl)-17-alpha-(propynyl-17beta-hydroxy-4,9-estradien-3-one)]
antagonist of glucocorticoid (GR) receptors [1]: GR antagonist effects

C[C@]12CCC(=O)C=C1CC[C@H]1[C@@H]3CC[C@](O)(C(=O)CO)[C@@]3(C)C[C@H](O)[C@@]12F [fludrocortisone]
Mean ACTH (1600 to 2400), Difference (Tx − Baseline) ([2]; 0.5 mg fludrocortisone at 1400 on Day 2): 5.76 pg/mL
Mean Cortisol (1600 to 2400), Difference (Tx − Baseline) ([2]; 0.5 mg fludrocortisone at 1400 on Day 2, 9 healthy subjects): 2.19 µg/dL
Mean Cortisol/ACTH (1600 to 2400), Difference (Tx − Baseline) ([2]; 0.5 mg fludrocortisone, post-hoc analysis): 0.0686 and 0.07
Mean ACTH (1600 to 2400), Effect Size [2, 4]: 4.46
Mean Cortisol (1600 to 2400), Effect Size [2, 4]: 1.65
Mean Cortisol/ACTH (1600 to 2400), Effect Size [2, 4]: 0.92
Mean ACTH (1600 to 2400), AUC Treatment ([2]; after 0.5 mg fludrocortisone): 13.2 pm/ml
Mean Cortisol (1600 to 2400), AUC Treatment ([2]; after 0.5 mg fludrocortisone): 1.77 µg/dL

C[C@]12CCC(=O)C=C1CC[C@@H]1[C@@H]2[C@@H](O)C[C@@]2(C)[C@H]1CC[C@]2(O)C(=O)CO [cortisol]
affinity for MR relative to GR [3]: greater affinity for MR than GR
